Experimental data as given in US8034928B2, “Fluorescence assays with improved sensitivity” (Wisconsin Alumni Research Foundation, priority 2003, dated 2011).

Legend:
[1] = Stability: generation of fluorescence in PBS, DMEM or water without trigger; format: physicochemical; conditions: DMEM and PBS, 5 μM, no cells
Description: The biological utility of pro-fluorophore 3 was then studied. To be useful, a latent fluorophore must remain non-fluorescent or have a small fluorescence in a biological environment. Accordingly, the accumulation of fluorescence in Dulbecco's modified Eagle's medium (DMEM) and phosphate-buffered saline (PBS) containing either fluorescein diacetate (which is a widely used pro-fluorophore) or 3 were studied.
A solution of pro-fluorophore 3 (5 μM) in 2 mL PBS was treated with PLE (0.5 μg), and the mixture was kept at room temperature for 4 h. The fluorescence excitation-emission spectra of the solution were recorded. The procedure was repeated for a solution of pro-fluorophore 3 treated in an identical manner, except for the addition of PLE.

HeLa cells = assay: Fluorescence microscopy of HeLa cells incubated with pro-fluorophore in DMEM; format: cell-based; conditions: 10 μM, 2 h, 37° C., unwashed cells
Description: FIGS. 3B and C show unwashed HeLa cells incubated for 2 h with fluorescein diacetate (panel B; 10 μM) or 3 (panel C; 10 μM) at 37° C. in DMEM (5% CO2, 100% humidity). In FIG. 3C, the grey/white areas show the intensity of the fluorescence with the highest fluorescence shown as the lightest shade.
Fluorescence microscopy was used to determine the fate of fluorescein diacetate and pro-fluorophore 3 in DMEM containing HeLa cells.

accumulation of fluorescence in medium (stability) [1]: became fluorescent in minutes
SMILES: CC(=O)Oc1ccc2c(c1)Oc1cc(OC(C)=O)ccc1C21OC(=O)c2ccccc21 [fluorescein diacetate]
fluorescence in HeLa cells (HeLa cells): much greater in the medium than in HeLa cells
